Reference: US8952008B2, “Chemical compounds” (Pfizer Limited, priority 2012, dated 2015)

Assays:
[1] = target: GABRA1-GABRB3-GABRG2 chloride currents in HEK cells (Homo sapiens (Human), UniProt P14867+P18507); experiment: QPatch electrophysiological recording, % enhancement of GABA current (α1 PAM); format: cell-based; conditions: approximately EC10 GABA, −60 mV, whole-cell patch clamp
Method: (§1) Cell suspension containing HEK cells expressing GABRA2-GABRB2-GABRG2 was placed on the QPatch instrument in serum-free medium into the instrument's cell stirrer. The instrument washed the cells once using extracellular buffer and then dispensed them into the QPlate HT measurement plate at a concentration of 3-4-e6/ml. […] All recordings were made at room temperature (22-24° C.).
(§2) Current records were acquired at 1 KHz and filtered at 0.3 KHz using the Bessel filter. Series resistance compensation was set to 80% in the QPatch software.
(§3) All compounds were dissolved in dimethyl sulfoxide to make 30 mM or 10 mM stock solutions, which were then diluted to 1000 times the desired final concentration in dimethyl sulfoxide. These were diluted into extracellular solution to attain the final concentrations desired. […] This concentration of dimethyl sulfoxide was present in all samples.
(§4) Currents were recorded at −60 mV, using an approximately EC10 concentration of gamma-aminobutyric acid (GABA). This dose of gamma-aminobutyric acid was applied for 6 seconds and washed off using extracellular buffer as an unrecorded application using the pipetting system of the QPatch instrument. The same dose of gamma-aminobutyric acid was then applied for 9 seconds, then the test compound was co-applied with this dose of gamma-aminobutyric acid for 15 seconds, and washed off using the extracellular solution using the pipetting system of the QPatch instrument.
(§5) Compound effect (% enhancement of gamma-aminobutyric acid current) was calculated using the following formula: [((peak modulator current amplitude-leak)−(GABA current amplitude-leak))/(GABA current amplitude-leak)]*100, where ‘leak’ is leak current at −60 mV, ‘peak modulator current amplitude’ is the current elicited by co-application of gamma-aminobutyric acid and test compound, and ‘GABA current amplitude’ is the current elicited by application of gamma-aminobutyric acid alone.
The ability of the compounds of the formula (I) to modulate the GABA channels expressing the al subunit (or GABRA1) can also be measured using an assay analogous to that described above but replacing the GABRA2-GABRB2-GABRG2 gene construct with the GABRA1-GABRB3-GABRG2 gene construct. All other conditions remain the same including the same cell line and conditions for cell growth.

[2] = target: GABRA2-GABRB2-GABRG2 chloride currents in HEK cells (Homo sapiens (Human), UniProt P18507+P47869); experiment: QPatch electrophysiological recording, % enhancement of GABA current (α2 PAM); format: cell-based; conditions: approximately EC10 GABA, −60 mV, whole-cell patch clamp
Method: Human Embryonic Kidney (HEK) cells were transfected with a GABRA2-GABRB2-GABRG2 construct using standard techniques.
For QPatch electrophysiology testing, cells were harvested from flasks by enzymatic dissociation and resuspended in serum-free medium. Cells were typically used for electrophysiological experiments within 24 to 72 hours after splitting.
as §1, §2, §3, §4, §5

[3] = target: human recombinant GABA A receptor containing the alpha2, beta2, and gamma3 subunits (Homo sapiens, UniProt P47869+Q99928); experiment: Radioligand competition binding assay with [3H]Ro-15-1788 (Flumazenil);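 further: membranes from HEK cells expressing the receptor, incubated with radioligand to equilibrium, filter-bound radioactivity counted, Ki reported as geometric mean of replicate runs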
Method: Membranes were prepared from HEK cells expressing hGABA A alpha2beta2-gamma3 receptor, and validated to ascertain protein concentration, receptor expression and to determine the Kd of the flumazenil as well as the Ki of a standard set of compounds before being used to test new compounds.
100 ul of radioligand and 100 ul of membrane in 50 mM Tris-HCl and 0.05% F127 with 1 ul of test compound was incubated for 2 hours to allow the reaction to achieve equilibrium, and then harvested onto filter plates, dried and counted on a TopCount NXT. The data was analysed, and the Ki values were presented as the geometric mean of at least two replicates.

GABRA1-GABRB3-GABRG2 chloride currents in HEK cells, sequence (P14867 28-456): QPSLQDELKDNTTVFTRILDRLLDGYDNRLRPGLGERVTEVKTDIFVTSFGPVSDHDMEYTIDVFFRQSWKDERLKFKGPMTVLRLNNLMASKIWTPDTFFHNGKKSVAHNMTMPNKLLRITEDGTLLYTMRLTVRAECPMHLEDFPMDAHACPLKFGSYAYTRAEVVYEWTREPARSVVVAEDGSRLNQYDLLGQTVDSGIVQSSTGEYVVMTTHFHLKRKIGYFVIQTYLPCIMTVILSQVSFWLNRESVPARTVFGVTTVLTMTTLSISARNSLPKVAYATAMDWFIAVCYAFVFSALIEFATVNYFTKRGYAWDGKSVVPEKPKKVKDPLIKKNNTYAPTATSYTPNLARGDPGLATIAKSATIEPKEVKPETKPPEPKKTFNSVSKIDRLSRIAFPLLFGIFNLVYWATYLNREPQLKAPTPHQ
GABRA1-GABRB3-GABRG2 chloride currents in HEK cells, sequence (P28472 26-473 partner): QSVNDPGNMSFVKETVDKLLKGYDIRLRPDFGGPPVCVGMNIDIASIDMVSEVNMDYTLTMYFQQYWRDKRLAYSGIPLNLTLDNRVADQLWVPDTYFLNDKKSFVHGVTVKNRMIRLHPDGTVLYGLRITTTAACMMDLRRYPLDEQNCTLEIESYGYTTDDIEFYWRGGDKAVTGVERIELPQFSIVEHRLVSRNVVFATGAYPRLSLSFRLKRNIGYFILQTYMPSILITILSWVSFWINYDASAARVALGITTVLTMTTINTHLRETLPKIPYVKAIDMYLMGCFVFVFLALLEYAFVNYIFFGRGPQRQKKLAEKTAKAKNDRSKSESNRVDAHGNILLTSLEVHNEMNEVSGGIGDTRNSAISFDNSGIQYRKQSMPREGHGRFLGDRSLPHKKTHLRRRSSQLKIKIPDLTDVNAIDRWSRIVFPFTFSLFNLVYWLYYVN
GABRA1-GABRB3-GABRG2 chloride currents in HEK cells, sequence (P18507 40-475): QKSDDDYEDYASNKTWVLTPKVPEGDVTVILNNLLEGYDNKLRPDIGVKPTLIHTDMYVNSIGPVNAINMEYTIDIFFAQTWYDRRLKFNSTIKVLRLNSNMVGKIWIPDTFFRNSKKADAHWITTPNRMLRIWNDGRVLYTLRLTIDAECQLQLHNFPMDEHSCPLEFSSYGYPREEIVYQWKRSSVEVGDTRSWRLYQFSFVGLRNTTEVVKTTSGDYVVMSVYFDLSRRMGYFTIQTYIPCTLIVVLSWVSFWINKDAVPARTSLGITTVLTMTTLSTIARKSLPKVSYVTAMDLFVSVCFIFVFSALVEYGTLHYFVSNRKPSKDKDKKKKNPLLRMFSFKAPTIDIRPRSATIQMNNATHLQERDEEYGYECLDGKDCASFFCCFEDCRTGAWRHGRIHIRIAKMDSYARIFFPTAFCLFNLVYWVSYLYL
GABRA2-GABRB2-GABRG2 chloride currents in HEK cells, sequence (P47869 29-451): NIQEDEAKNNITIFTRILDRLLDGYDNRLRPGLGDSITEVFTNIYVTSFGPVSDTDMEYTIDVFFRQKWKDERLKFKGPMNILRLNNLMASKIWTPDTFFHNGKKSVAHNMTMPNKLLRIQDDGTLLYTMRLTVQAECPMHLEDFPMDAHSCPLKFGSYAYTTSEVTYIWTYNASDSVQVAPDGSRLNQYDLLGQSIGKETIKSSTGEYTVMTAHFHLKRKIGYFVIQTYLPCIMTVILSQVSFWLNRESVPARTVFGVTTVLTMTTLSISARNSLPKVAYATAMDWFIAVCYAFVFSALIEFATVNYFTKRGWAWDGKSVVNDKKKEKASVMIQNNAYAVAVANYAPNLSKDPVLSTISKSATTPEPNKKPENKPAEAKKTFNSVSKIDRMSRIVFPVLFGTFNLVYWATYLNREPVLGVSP
GABRA2-GABRB2-GABRG2 chloride currents in HEK cells, sequence (P47870 26-512 partner): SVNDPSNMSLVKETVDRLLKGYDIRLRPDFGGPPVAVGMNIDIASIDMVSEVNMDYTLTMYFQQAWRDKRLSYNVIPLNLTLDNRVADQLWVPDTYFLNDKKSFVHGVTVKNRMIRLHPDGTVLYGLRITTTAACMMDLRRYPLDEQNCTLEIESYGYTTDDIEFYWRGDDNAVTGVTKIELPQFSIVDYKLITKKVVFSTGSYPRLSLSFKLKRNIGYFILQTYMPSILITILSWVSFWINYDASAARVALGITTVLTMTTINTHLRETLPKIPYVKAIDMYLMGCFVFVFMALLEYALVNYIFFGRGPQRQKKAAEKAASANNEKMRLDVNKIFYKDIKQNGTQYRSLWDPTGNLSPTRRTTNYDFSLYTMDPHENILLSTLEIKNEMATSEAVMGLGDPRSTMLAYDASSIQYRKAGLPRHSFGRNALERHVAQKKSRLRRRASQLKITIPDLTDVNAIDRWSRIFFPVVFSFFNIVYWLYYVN
GABRA2-GABRB2-GABRG2 chloride currents in HEK cells, sequence (P18507 40-475): as the sequence (P18507 40-475) above

SMILES	α1 PAM (%) [1] [%]	α2 PAM (%) [2] [%]	Ki [3] [nM]
CCn1cnc2c(-c3ccc(F)c(-c4ccc(S(=O)(=O)CC)cc4C#N)c3)cnnc21 [Example 11, 5′-(7-Ethyl-7H-imidazo[4,5-c]pyridazin-4-yl)-4-(ethylsulfonyl)-2′-fluoro-[1,1′-biphenyl]-2-carbonitrile]	−0.474	46.7	39.2
COc1cc(S(C)(=O)=O)ccc1-c1cc(-c2cnnc3c2ncn3C(C)C)ccc1F [Example 38, 4-(6-Fluoro-2′-methoxy-4′-(methylsulfonyl)-[1,1′-biphenyl]-3-yl)-7-isopropyl-7H-imidazo[4,5-c]pyridazine]	14.6	62.5	8.56
CCS(=O)(=O)c1ccc(-c2cc(-c3cnnc4c3ncn4C3CC3)ccc2F)cc1 [Example 19, 7-Cyclopropyl-4-[4′-(ethylsulfonyl)-6-fluorobiphenyl-3-yl]-7H-imidazo[4,5-c]pyridazine]	−6.17	84.3	31.1
CCS(=O)(=O)c1ccc(-c2cc(-c3cnnc4c3ncn4C(C)C)ccc2F)cc1 [Example 31, 4-[4′-(Ethylsulfonyl)-6-fluorobiphenyl-3-yl]-7-(propan-2-yl)-7H-imidazo[4,5-c]pyridazine]	21.3	118	23.9
CCS(=O)(=O)c1ccc(-c2cc(-c3cnnc4c3ncn4C(C)C)ccc2F)c(F)c1 [Example 34, 4-[4′-(Ethylsulfonyl)-2′,6-difluorobiphenyl-3-yl]-7-(propan-2-yl)-7H-imidazol[4,5-c]pyridazine]	4.99	94.7	34.5
CS(=O)(=O)c1ccc(-c2cc(-c3cnnc4c3ncn4C3CC3)ccc2F)cc1 [Example 21, 7-Cyclopropyl-4-(6-fluoro-4′-(methylsulfonyl)biphenyl-3-yl)-7H-imidazo[4,5-c]pyridazine]	−5.78	31.6	43.3
CCn1cnc2c(-c3ccc(O)c(-c4ccc(S(=O)(=O)CC)cc4OC)c3)cnnc21 [Example 48, 5-(7-Ethyl-7H-imidazo[4,5-c]pyridazin-4-yl)-4′-(ethylsulfonyl)-2′-methoxy-[1,1′-biphenyl]-2-ol]	−5.53	47.8	–
CC(C)n1cnc2c(-c3ccc(F)c(-c4ccc(S(N)(=O)=O)cc4)c3)cnnc21 [Example 32, 2′-Fluoro-5′-(7-isopropyl-7H-imidazo[4,5-c]pyridazin-4-yl)biphenyl-4-sulfonamide]	−29.5	77.2	5.82
CCn1cnc2c(-c3ccc(F)c(-c4ccc(S(=O)(=O)C(C)C)cc4)c3)cnnc21 [Example 1, 7-Ethyl-4-[6-fluoro-4′-(propan-2-ylsulfonyl)biphenyl-3-yl]-7H-imidazo[4,5-c]pyridazine]	1.05	124	31.1
CCS(=O)(=O)c1ccc(-c2cc(-c3cnnc4c3ncn4C(C)C)ccc2F)c(C#N)c1 [Example 41, 4-(Ethylsulfonyl)-2′-fluoro-5′-(7-isopropyl-7H-imidazo[4,5-c]pyridazin-4-yl)-[1,1′-biphenyl]-2-carbonitrile]	14.9	81.3	29.1
CCS(=O)(=O)c1ccc(-c2cc(-c3cnnc4c3ncn4C3CC3)ccc2F)c(C#N)c1 [Example 25, 5′-(7-Cyclopropyl-7H-imidazo[4,5-c]pyridazin-4-yl)-4-(ethylsulfonyl)-2′-fluoro-[1,1′-biphenyl]-2-carbonitrile]	−5.82	23.9	170
CCn1cnc2c(-c3ccc(F)c(-c4ccc(S(N)(=O)=O)cc4)c3)cnnc21 [Example 3, 5′-(7-Ethyl-7H-imidazo[4,5-c]pyridazin-4-yl)-2′-fluorobiphenyl-4-sulfonamide]	−51.1	27.6	–
CCn1cnc2c(-c3ccc(F)c(-c4ccc(S(=O)(=O)NC)cc4)c3)cnnc21 [Example 8, 5′-(7-Ethyl-7H-imidazo[4,5-c]pyridazin-4-yl)-2′-fluoro-N-methylbiphenyl-4-sulfonamide]	−55.1	19.4	–
COc1cc(S(C)(=O)=O)ccc1-c1cc(-c2cnnc3c2ncn3C2CC2)ccc1F [Example 24, 7-Cyclopropyl-4-(6-fluoro-2′-methoxy-4′-(methylsulfonyl)-[1,1′-biphenyl]-3-yl)-7H-imidazo[4,5-c]pyridazine]	−0.441	55.3	37.1
CCn1cnc2c(-c3ccc(F)c(-c4ccc(S(C)(=O)=O)cc4OC)c3)cnnc21 [Example 12, 7-Ethyl-4-(6-fluoro-2′-methoxy-4′-(methylsulfonyl)-[1,1′-biphenyl]-3-yl)-7H-imidazo[4,5-c]pyridazine]	3.66	39.1	–
COc1cc(S(C)(=O)=O)ccc1-c1cc(-c2cnnc3c2ncn3C2CCC2)ccc1F [Example 29, 7-Cyclobutyl-4-(6-fluoro-2′-methoxy-4′-(methylsulfonyl)-[1,1′-biphenyl]-3-yl)-7H-imidazol[4,5-c]pyridazine]	69.4	173	101
CCn1cnc2c(-c3ccc(F)c(-c4ccc(S(C)(=O)=O)cc4F)c3)cnnc21 [Example 2, 4-[2′,6-Difluoro-4′-(methylsulfonyl)biphenyl-3-yl]-7-ethyl-7H-imidazo[4,5-c]pyridazine]	−4.67	1.69	10.9
COc1cc(S(C)(=O)=O)ccc1-c1cc(-c2cnnc3c2ncn3C2CCCC2)ccc1F [Example 42, 7-Cyclopentyl-4-(6-fluoro-2′-methoxy-4′-(methylsulfonyl)-[1,1′-biphenyl]-3-yl)-7H-imidazo[4,5-c]pyridazine]	112	199	91.4
CNS(=O)(=O)c1ccc(-c2cc(-c3cnnc4c3ncn4C(C)C)ccc2F)cc1 [Example 33, 2′-Fluoro-N-methyl-5′-[7-(propan-2-yl)-7H-imidazo[4,5-c]pyridazin-4-yl]biphenyl-4-sulfonamide]	−27.0	79.9	16.4
